Measured values published in ChEMBL document CHEMBL1821573, “A fast virtual screening approach to identify structurally diverse inhibitors of trypanothione reductase” (Bioorg Med Chem Lett, 2011).

Target: Trypanothione reductase (Trypanosoma cruzi, UniProt P28593)
Assay: Inhibition of Trypanosoma cruzi TryR using trypanothione as substrate preincubated for 10 mins

Chain of Trypanothione reductase (P28593 whole entry): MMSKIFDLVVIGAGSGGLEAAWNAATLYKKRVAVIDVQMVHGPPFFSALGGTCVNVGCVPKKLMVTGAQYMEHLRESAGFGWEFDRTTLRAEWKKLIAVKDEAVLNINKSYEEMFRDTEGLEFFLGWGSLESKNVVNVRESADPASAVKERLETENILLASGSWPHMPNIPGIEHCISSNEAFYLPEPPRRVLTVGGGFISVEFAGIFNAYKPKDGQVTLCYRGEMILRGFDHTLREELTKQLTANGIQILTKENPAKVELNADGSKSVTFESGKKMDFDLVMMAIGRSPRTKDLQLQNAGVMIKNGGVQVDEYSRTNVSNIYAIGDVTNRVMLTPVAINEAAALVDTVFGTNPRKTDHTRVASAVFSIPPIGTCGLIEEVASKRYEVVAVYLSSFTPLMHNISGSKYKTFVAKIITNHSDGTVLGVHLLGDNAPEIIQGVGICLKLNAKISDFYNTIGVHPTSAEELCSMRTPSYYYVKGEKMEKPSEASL

**Q.** `Cc1sc2ncn3c(SCC(=O)Nc4sc5c(c4C#N)CCCC5)nnc3c2c1C` was tested. Which Ki did it give?
**A.** 11.8 µM

**Q.** Which Ki does the source give for `Cc1ccc2[nH]c(Cc3ccc(NC(=O)CCc4nc5ccccc5[nH]4)cc3)nc2c1` here?
**A.** 13.1 µM

**Q.** How did the Ki turn out when `Nc1ccc2[nH]c(CCCCCCCCc3nc4cc(N)ccc4[nH]3)nc2c1` was run?
**A.** 10.6 µM

**Q.** How did the Ki turn out when `O=C(CNc1ccc(S(=O)(=O)N2CCCCC2)cc1)CSc1ncc(-c2ccc(Cl)cc2)n1-c1ccccc1` was run?
**A.** 22.3 µM

**Q.** With `Cc1ccc2nc(Cc3ccc(NC(=O)C(C)Oc4ccccc4)cc3)[nH]c2c1` (centres undefined) as the molecule, how does the Ki read?
**A.** 26.9 µM

**Q.** How did the Ki turn out when `N#Cc1c(NC(=O)CSc2nc(-c3ccc(Cl)cc3)c[nH]2)sc2c1CCCC2` was run?
**A.** 9.3 µM

**Q.** How did the Ki turn out when `COCCn1c(-c2ccccc2)cnc1SCC(=O)CNc1ccc(S(=O)(=O)N2CCCCC2)cc1` was run?
**A.** 11.1 µM

**Q.** Which Ki does the source give for `CCn1c(-c2ccccc2)cnc1SCC(=O)Nc1ccc(C2CCCCC2)cc1` here?
**A.** 5.7 µM

**Q.** `CCn1c(-c2ccccc2)cnc1SCC(=O)Nc1sc2c(c1C#N)CCCC2` was tested. Which Ki did it give?
**A.** 13.1 µM
